What was measured:
[1] = test system: OUMS‐36 embryonic fibroblasts; assay: intracellular ROS, CellROX Deep Red flow cytometry, OUMS-36; format: cell-based, human; conditions: treated 1 h (menadione 100 μmol/L, 30 min)
Experimental: (§1) In order to estimate the effect of each inhibitor described above, intracellular reactive oxygen species (ROS) were measured using CellROX™ Deep Red reagent (Molecular Probes). Briefly, cells were seeded on 6‐well plates at 1 × 10^6 cells per well. After cells reached 90% confluence, cells were treated with designated reagents for 1 h. CellROX™ Deep Red reagent was added at a final concentration of 5 μmol/L to the culture medium and then incubated for 30 min at 37°C. Subsequently, the medium was removed and the cells were washed with PBS and detached using 0.25% trypsin‐EDTA. The resulting fluorescence was measured using a FACS Calibur flow cytometer (Becton Dickinson, Franklin Lakes, NJ). Menadione (100 μmol/L) was added 30 min before CellROX™ Deep Red reagent treatment as a reference ROS inducer. […] CD44v9 positivity of CTOS cells was analyzed as follows: Cancer spheroids were dispersed with serial treatments of TrypLE™ (20 min, GIBCO) and Accumax™ (10 min, Innovative Cell Technologies, San Diego, CA). Cell surface CD44v9 was stained with CD44v9 antibody (Cosmobio) as well as PE‐conjugated anti‐rat IgG2a (Becton Dickinson). The fluorescence was measured using a FACS Calibur flow cytometer (Becton Dickinson). Since CTOSs contained abundant auto‐fluorescent cells, we defined FL2^+FL1^− cells as authentic PE‐positive (Fig. S4). Thus, CD44v9‐positive rate was defined as FL2^+FL1^−/total live cells and CD44v9‐positive fraction was further gated and split between CD44v9^low and CD44v9^high (Fig. S4), to calculate the mean fluorescent intensity of CD44v9^high fraction.
(§2) One hour after each drug treatment, cells were stained with CellROX DeepRed and intracellular ROS were quantified with FACS. Upper: histogram of fluorescent signal is represented. Lower. representative mean fluorescent intensity scores are shown. Note that without drug treatment (Control), intracellular ROS is higher in OUMS36 and TIG3 (embryonic fibroblasts) but lower in DLD-1 and HCT116 (CRC cell lines). ROS in DLD-1 was increased by auranofin. ROS in HCT116 was increased by all the inhibitors tested. […]

[2] = test system: TIG‐3 embryonic fibroblasts; assay: intracellular ROS, CellROX Deep Red flow cytometry, TIG-3; format: cell-based, human; conditions: treated 1 h (menadione 100 μmol/L, 30 min)
Experimental: as §1, §2

[3] = test system: HCT116 CRC cell line; assay: intracellular ROS, CellROX Deep Red flow cytometry, HCT116; format: cell-based, human; conditions: treated 1 h (menadione 100 μmol/L, 30 min)
Experimental: as §1
One hour after each drug treatment, cells were stained with CellROX DeepRed and intracellular ROS were quantified with FACS. Upper: histogram of fluorescent signal is represented. Lower. representative mean fluorescent intensity scores are shown. Note that without drug treatment (Control), intracellular ROS is higher in OUMS36 and TIG3 (embryonic fibroblasts) but lower in DLD-1 and HCT116 (CRC cell lines). ROS in DLD-1 was increased by auranofin. ROS in HCT116 was increased by all the inhibitors tested. Menadione was used as a reference chemical to increase ROS.

[4] = test system: NRF2 target genes in colorectal CTOSs; assay: qRT-PCR of NRF2 and TP53 target genes in colorectal CTOSs; format: cell-based, human; conditions: higher dose (auranofin 4, CB83 25, piperlongumine 10 μmol/L) for 24 h
Experimental: Total RNA was purified using RNAiso Plus (Takara, Osaka, Japan). Reverse transcription was performed using PrimeScript™ with gDNA Eraser (Takara). For quantifying the copy number of each mRNA, we used a StepOne™ Real‐Time PCR System (Applied Biosystems, Waltham, MA) and the Taqman® method. Data were calculated according to the modified delta‐cycle of threshold (ΔCT) method. Normalized Log2 expression was defined as follows: (Log2 expression of a gene of interest) = 30 (arbitrary constant) + (CT of 18S rRNA) − (CT of a gene of interest). We used Log2 parameter for statistical analysis because mRNA expression follows a log‐normal distribution, whereas ΔCT follows normal distribution. A gene‐specific fluorescent probe was designed using a web‐based program (https://qpcr.probefinder.com/organism.jsp). […] Gene‐specific Taqman® probes were purchased from Life Technologies, (Waltham, MA, for Cat#, see Table S1 SpreadSheet2). For PCR, Thunderbird® Probe qPCR mix (Toyobo, Osaka, Japan) was used and the PCR conditions consisted of 40 cycles of two steps (95°C for 15 sec and 60°C for 50 sec).
In order to judge the effect of drug treatments on gene expression, a repeated measures one‐way analysis of variance (ANOVA) was used to determine the variance of Log2 expression from four different groups (untreated, auranofin, CB83, and piperlongumine) using SPSS. Subsequently, the effect of each drug was determined by a paired t test as a post hoc analysis. The P‐values < 0.05 were defined as statistically significant.
In order to estimate NRF2 compensation induced by pharmacological inhibition of TXNRD (auranofin), G6PD (CB83), or GSTπ (piperlongumine), we quantified gene expression of NRF2 target genes. Activation of NRF2 protein was confirmed by NRF2 phosphorylation (Fig. S5A).

[5] = test system: phosphorylated NRF2 in colorectal CTOSs; assay: NRF2 phosphorylation by western blotting, colorectal CTOSs; format: cell-based, human; conditions: 24 hours, Auranofin 2µM, Piperlongumine 5µM, CB83 12.5 µM
Experimental: From colorectal CTOS, whole‐cell proteins were dissolved with solubilizer (7 mol/L urea, 2 mol/L thiourea, 2% Triton X‐100, Wako) and the entangled genomic DNA was sheared by sonication for 30 min. Procedures for immunoblotting have been described elsewhere 6, 10. Primary antibodies used in this study are as follows: phosphorylated NRF2 from Abcam (#76026) and Histone H3 from Cell Signaling Technologies (#4499, Danvers, MA). Phosphorylation of NRF2 is well correlated with nuclear accumulation in HCCs 6. Representative data are shown in the figures; all experiments were reproduced at least twice with different passage points.
Colorectal CTOSs were incubated with each inhibitor for 24 hours. Whole cell proteins were extracted and each well was loaded with same amount of proteins (40 µg for NRF2 and 10 µg for H3). Phosphorylation of NRF2 was measured by western blotting. Blotting for histone H3 serves as loading control.

[6] = test system: CRC cell lines; design: method as in PMID 25591719; conditions: cited from earlier work
[7] = test system: DLD‐1 CRC cell line; assay: intracellular ROS, CellROX Deep Red flow cytometry, DLD-1; format: cell-based, human; conditions: treated 1 h (menadione 100 μmol/L, 30 min)
Experimental: as §1, with “Since CTOSs contained abundant auto‐fluorescent cells, we defined FL2^+FL1^− cells as authentic PE‐positive (Fig. S4). Thus, CD44v9‐positive rate was defined as FL2^+FL1^−/total live cells and CD44v9‐positive fraction was further gated and split between CD44v9^low and CD44v9^high (Fig. S4), to calculate the mean fluorescent intensity of CD44v9^high fraction.” left out
One hour after each drug treatment, cells were stained with CellROX DeepRed and intracellular ROS were quantified with FACS. […]

Structure (SMILES)	intracellular ROS response [1]	intracellular ROS response [2]	intracellular ROS response [3]	TXNRD1 mRNA expression change [4]	NRF2 phosphorylation [5]	GSH/GSSG ratios [6]	NADPH/NADP+ ratios [6]	intracellular ROS response [7]
Cc1ccc(C)c(S(=O)(=O)Nc2ccc(O)c3ccccc23)c1 [CB83]	no ROS increase	no ROS increase	increase of ROS	up‐regulated	efficiently phosphorylated	failed to alter	decreased	–
CC1=CC(=O)c2ccccc2C1=O [menadione, Menadione]	no ROS increase	no ROS increase	increase of ROS	–	–	–	–	increase of ROS

Reference: paper PMC5055185, “Dual pharmacological inhibition of glutathione and thioredoxin systems synergizes to kill colorectal carcinoma stem cells” (Cancer Medicine, 2016)
